Assay results from the NIST ThermoML archive (doi:10.1021/acs.jced.5b00662).

Test: xn = mol fraction of the nth substance listed
Conditions: 100 kPa, Liquid; for speed of sound: Sing-around technique in a fixed-path interferometer; for mass density: Vibrating tube method

CCOCCOCCO [3,6-dioxa-1-octanol] + O
Conditions	mass density, x1 = 0.9674 [kg/m3]	mass density, x1 = 0.974 [kg/m3]	mass density, x1 = 0.9826 [kg/m3]	mass density, x1 = 0.9887 [kg/m3]	mass density, x1 = 0.9899 [kg/m3]	speed of sound, x1 = 0.9674 [m/s]	speed of sound, x1 = 0.974 [m/s]	speed of sound, x1 = 0.9826 [m/s]	speed of sound, x1 = 0.9887 [m/s]	speed of sound, x1 = 0.9899 [m/s]
283.15 K	997.734	997.587	997.387	997.339	997.227	1430.8	1430.3	1429.4	1429.6	1429.6
288.15 K	993.31	993.16	992.963	992.908	992.793	1412.8	1412.2	1411.4	1411.4	1411.2
293.15 K	988.877	988.725	988.528	988.475	988.357	1394.9	1394.3	1393.5	1393.6	1393.3
298.15 K	984.434	984.285	984.088	984.028	983.913	1377.3	1376.5	1375.7	1375.7	1375.4
303.15 K	979.981	979.829	979.636	979.572	979.459	1359.6	1358.8	1358	1357.9	1357.5
308.15 K	975.514	975.363	975.164	975.102	974.991	1342	1341.3	1340.5	1340.1	1340
313.15 K	971.029	970.88	970.684	970.62	970.511	1324.4	1323.9	1323.1	1322.7	1322.5
323.15 K	962.022	961.873	961.673	961.608	961.499	1289.8	1289.3	1288.5	1287.9	1287.8
333.15 K	952.945	952.794	952.591	952.534	952.422	1255.6	1255	1254.2	1253.7	1253.5
343.15 K	943.775	943.629	943.425	943.381	943.264	1221.7	1221.1	1220.3	1220	1219.7
